Activity calls are given as the source filed them. Cut-off read from the data, not from the text of the source, for most assays here: actives have a measured EC50 and inactives only a lower limit.

Usually EC50 stands for the midpoint of the concentration-response curve. Broadly, the IC50 is the concentration at which inhibition is half-maximal.

Assay [1] can be described thus: cytotoxicity toward NIH3T3 fibroblasts, dose response, counter-screen, cell-based, ATP luminescence, mouse fibroblasts (AID 2010).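 Note: cells exposed to compound for about 90 hours before reading.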 Type of assay: functional. On the technique in general: The purpose of a counterscreen is to sort out artefacts and off-target activity.
The nature of assay [2]: inhibitors of intracellular T. cruzi replication, confirmation, NIH3T3 host cells, beta-gal luminescence (AID 2044).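 Note: intracellular parasites grown in NIH/3T3 mouse fibroblasts as host cells; luminescent beta-galactosidase reporter signal from transgenic T. cruzi replicating inside host cells; inhibitors lower the luminescence signal.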 Type of assay: functional, cell-based.
The target in assay [3] is ATP-dependent molecular chaperone HSP82 (Candida albicans (strain WO-1) (Yeast), UniProt C4YTQ8). The experiment in a line: loss of DOC-induced GRE-beta-galactosidase reporter signal, dose response, Hsp90 inhibitor project, S. cerevisiae, luminescence (AID 2400).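 Note: beta-galactosidase luminescence from glucocorticoid response element reporter as proxy for Hsp90 function; inhibitor potency where signal loss means Hsp90 inhibition.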 Type of assay: functional, cell-based.
Assay [4] deals with T1, Exodeoxyribonuclease V (Escherichia coli (strain K12), UniProt P04993+P07648+P08394).
T1 sequence (P04993 whole entry): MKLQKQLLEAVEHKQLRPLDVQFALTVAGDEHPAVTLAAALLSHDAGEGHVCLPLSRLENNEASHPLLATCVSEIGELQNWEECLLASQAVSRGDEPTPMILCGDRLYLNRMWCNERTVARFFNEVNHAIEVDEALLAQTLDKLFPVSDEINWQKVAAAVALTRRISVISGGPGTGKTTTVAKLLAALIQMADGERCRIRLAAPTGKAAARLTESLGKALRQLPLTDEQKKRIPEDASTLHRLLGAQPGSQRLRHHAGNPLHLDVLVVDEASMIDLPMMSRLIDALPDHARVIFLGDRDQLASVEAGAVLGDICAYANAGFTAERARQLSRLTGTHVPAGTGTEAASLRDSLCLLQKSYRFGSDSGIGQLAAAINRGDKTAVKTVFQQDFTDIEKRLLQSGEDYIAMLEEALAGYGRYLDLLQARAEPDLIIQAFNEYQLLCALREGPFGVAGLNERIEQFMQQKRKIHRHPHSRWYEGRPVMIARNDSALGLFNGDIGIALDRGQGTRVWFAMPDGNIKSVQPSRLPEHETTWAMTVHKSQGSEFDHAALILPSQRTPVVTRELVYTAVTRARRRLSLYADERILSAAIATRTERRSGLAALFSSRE
T1 sequence (P07648 whole entry): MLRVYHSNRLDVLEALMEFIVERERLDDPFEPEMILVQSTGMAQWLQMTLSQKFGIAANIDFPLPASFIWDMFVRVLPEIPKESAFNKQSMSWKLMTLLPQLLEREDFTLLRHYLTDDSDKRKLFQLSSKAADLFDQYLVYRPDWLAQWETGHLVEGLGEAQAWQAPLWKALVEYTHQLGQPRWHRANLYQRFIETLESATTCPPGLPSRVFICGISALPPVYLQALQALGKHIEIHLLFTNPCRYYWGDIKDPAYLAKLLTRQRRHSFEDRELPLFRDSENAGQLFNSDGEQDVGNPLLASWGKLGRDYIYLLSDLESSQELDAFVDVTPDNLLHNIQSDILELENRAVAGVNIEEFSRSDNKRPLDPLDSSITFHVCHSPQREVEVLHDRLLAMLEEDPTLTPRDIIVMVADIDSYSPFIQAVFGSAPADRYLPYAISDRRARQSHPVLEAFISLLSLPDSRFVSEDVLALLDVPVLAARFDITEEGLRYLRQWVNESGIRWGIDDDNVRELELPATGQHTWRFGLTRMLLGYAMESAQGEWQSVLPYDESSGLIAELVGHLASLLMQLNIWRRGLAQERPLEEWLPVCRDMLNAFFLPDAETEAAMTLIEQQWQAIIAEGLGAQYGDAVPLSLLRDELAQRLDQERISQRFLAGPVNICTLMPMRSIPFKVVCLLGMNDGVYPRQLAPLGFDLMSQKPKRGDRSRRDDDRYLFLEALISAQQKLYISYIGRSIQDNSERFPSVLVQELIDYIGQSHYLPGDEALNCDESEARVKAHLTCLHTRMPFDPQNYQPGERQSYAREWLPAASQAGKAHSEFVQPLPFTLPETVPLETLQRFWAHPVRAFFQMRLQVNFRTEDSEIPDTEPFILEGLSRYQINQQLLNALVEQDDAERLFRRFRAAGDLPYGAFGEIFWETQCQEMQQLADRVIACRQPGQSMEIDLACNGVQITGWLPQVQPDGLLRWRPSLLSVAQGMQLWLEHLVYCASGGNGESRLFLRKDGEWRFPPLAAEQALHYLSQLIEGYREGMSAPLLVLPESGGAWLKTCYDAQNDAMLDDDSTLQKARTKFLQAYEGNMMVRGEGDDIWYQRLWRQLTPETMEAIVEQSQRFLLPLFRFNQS
T1 sequence (P08394 whole entry): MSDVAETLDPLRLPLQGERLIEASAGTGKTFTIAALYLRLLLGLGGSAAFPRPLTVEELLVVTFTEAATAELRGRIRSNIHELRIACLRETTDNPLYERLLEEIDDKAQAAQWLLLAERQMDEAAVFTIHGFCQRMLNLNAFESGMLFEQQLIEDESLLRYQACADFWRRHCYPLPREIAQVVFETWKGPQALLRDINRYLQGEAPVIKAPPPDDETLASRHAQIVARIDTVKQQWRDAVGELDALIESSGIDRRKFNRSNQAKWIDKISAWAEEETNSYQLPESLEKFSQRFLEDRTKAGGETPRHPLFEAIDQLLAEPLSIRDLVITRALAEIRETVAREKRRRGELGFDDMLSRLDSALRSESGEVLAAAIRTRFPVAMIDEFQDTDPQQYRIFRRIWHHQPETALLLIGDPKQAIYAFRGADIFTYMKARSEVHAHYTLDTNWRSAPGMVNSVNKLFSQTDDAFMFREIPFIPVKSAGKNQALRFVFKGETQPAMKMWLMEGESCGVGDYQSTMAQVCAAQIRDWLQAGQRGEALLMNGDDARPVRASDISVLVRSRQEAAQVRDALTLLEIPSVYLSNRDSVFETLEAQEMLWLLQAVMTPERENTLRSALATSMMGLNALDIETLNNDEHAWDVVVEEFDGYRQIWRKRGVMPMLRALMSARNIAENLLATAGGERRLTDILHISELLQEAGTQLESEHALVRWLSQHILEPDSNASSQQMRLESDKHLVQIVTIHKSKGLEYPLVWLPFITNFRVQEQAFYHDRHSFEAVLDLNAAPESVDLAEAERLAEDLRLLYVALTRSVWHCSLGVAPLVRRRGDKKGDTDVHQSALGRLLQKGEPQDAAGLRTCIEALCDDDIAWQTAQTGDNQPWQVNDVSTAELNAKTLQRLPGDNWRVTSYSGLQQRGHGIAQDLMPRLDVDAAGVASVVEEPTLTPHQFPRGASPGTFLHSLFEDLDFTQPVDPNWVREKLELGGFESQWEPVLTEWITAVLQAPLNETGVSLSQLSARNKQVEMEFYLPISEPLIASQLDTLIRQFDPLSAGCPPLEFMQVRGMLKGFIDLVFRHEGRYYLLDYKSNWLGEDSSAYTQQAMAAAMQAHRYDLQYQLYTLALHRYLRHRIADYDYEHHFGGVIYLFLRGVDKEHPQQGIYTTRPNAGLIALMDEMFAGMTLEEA
The experiment in a line: E. coli RecBCD inhibitors, dose response, counter-screen for AddAB inhibitor project, absorbance, V66 E. coli, mutant T4 phage (AID 492957). Type of assay: functional, cell-based, Escherichia coli str. K-12 substr. MG1655.

Chain of ATP-dependent molecular chaperone HSP82 (C4YTQ8 whole entry): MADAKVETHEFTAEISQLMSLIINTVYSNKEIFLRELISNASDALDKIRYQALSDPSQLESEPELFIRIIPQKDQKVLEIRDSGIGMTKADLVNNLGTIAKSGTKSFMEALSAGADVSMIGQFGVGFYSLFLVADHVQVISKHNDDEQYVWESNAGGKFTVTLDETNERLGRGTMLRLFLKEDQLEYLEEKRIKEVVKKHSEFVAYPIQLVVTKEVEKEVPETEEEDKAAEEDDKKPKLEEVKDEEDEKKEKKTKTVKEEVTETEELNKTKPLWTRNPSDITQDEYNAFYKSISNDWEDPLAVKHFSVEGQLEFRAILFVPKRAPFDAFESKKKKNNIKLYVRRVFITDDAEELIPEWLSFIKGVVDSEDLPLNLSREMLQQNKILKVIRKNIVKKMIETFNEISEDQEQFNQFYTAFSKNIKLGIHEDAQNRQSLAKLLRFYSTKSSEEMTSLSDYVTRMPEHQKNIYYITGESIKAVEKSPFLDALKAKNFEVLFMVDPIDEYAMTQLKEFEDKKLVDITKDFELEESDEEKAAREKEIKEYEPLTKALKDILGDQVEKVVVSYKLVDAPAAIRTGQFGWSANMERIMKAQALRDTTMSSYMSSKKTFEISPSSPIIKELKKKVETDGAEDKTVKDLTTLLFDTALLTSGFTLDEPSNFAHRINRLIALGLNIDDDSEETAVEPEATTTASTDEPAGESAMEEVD

With `CCCCC(=O)NC(c1ccco1)c1cc(Cl)c2cccnc2c1O` (stereo not given), the values for the EC50 in assay [1], in assay [2] and in assay [3] were 3.65 µM (active), 1.91 µM (active) and > 160 µM (inactive), respectively. Moreover, in assay [4], the IC50 is > 119 µM (inactive).
Take `CCCCC(=O)NC(c1ccc(Cl)cc1)c1ccc2cccnc2c1O` (stereo not given): the EC50 in assay [1] is 0.617 µM (active); in assay [2], 0.268 µM (active); in assay [3] it was 29.1 µM (active). Moreover, in assay [4], the IC50 is > 119 µM (inactive).
`O=C(N/N=C/c1ccccc1O)/C(O)=C\C1=NC2(CCCC2)Cc2ccccc21`: the EC50 in assay [3] is 22.1 µM (active). The IC50 in assay [4] is > 119 µM (inactive).

Source of the values: ChEMBL document CHEMBL1201862, “PubChem BioAssay data set” (2004).
